Measurements reported in ChEMBL document CHEMBL5442219.

What was measured:
Details in all cases: Compound concentration 10 µM
[1] = target: Sigma non-opioid intracellular receptor 1 (Homo sapiens) (UniProt Q99720)
Description: PDSP Primary Binding target: SIGMAR1 - Compounds are tested at 10 uM concentration, plate are incubated at room temperature in the dark for 90 minutes. Reaction are stopped by vacuum filtration onto 0.3% polyethyleneimine soaked filter mats using Filtermate harvester. Scintilation cocktail is then melted onto microwave-dried filters on a hot plate and the radio activity is counted in Microbia counter.

[2] = target: Beta-1 adrenergic receptor (Homo sapiens) (UniProt P08588)
Description: PDSP Primary Binding target: ADRB1 - Compounds are tested at 10 uM concentration, plate are incubated at room temperature in the dark for 90 minutes. Reaction are stopped by vacuum filtration onto 0.3% polyethyleneimine soaked filter mats using Filtermate harvester. Scintilation cocktail is then melted onto microwave-dried filters on a hot plate and the radio activity is counted in Microbia counter.

[3] = target: Sodium-dependent dopamine transporter (Homo sapiens) (UniProt Q01959)
Description: PDSP Primary Binding target: SLC6A3 - Compounds are tested at 10 uM concentration, plate are incubated at room temperature in the dark for 90 minutes. Reaction are stopped by vacuum filtration onto 0.3% polyethyleneimine soaked filter mats using Filtermate harvester. Scintilation cocktail is then melted onto microwave-dried filters on a hot plate and the radio activity is counted in Microbia counter.

[4] = target: T1, Alpha-1B adrenergic receptor (Homo sapiens) (UniProt P35368)
T1 sequence (whole entry): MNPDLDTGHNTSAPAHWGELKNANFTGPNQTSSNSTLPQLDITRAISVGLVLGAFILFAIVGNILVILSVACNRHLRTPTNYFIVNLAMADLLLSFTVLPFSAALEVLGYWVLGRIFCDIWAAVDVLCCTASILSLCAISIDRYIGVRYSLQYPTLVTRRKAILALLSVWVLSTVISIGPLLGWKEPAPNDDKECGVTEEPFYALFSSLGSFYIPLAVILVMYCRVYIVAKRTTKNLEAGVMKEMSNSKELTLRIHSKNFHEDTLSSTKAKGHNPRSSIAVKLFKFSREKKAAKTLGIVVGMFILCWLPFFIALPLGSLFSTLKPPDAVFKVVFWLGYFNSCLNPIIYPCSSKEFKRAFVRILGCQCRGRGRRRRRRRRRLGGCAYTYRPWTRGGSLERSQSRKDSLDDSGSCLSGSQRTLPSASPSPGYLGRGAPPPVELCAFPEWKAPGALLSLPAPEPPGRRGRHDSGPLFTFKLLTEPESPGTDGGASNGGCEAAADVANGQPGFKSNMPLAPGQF
Description: PDSP Primary Binding target: ADRA1B - Compounds are tested at 10 uM concentration, plate are incubated at room temperature in the dark for 90 minutes. Reaction are stopped by vacuum filtration onto 0.3% polyethyleneimine soaked filter mats using Filtermate harvester. Scintilation cocktail is then melted onto microwave-dried filters on a hot plate and the radio activity is counted in Microbia counter.

[5] = target: T2, Muscarinic acetylcholine receptor M2 (Homo sapiens) (UniProt P08172)
T2 sequence (whole entry): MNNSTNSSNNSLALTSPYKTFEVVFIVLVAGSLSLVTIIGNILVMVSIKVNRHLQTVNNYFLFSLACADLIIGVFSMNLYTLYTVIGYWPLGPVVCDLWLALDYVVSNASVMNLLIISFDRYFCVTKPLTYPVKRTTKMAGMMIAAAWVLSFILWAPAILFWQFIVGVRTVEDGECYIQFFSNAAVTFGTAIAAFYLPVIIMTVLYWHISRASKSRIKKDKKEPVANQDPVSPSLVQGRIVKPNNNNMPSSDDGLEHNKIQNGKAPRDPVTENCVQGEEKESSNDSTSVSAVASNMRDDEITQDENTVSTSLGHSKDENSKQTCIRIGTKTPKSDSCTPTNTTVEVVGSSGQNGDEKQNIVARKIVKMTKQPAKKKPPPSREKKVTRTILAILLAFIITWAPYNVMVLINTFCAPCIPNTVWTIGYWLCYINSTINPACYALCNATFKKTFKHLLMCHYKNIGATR
Description: PDSP Primary Binding target: CHRM2 - Compounds are tested at 10 uM concentration, plate are incubated at room temperature in the dark for 90 minutes. Reaction are stopped by vacuum filtration onto 0.3% polyethyleneimine soaked filter mats using Filtermate harvester. Scintilation cocktail is then melted onto microwave-dried filters on a hot plate and the radio activity is counted in Microbia counter.

[6] = target: Muscarinic acetylcholine receptor M3 (Homo sapiens) (UniProt P20309)
Description: PDSP Primary Binding target: CHRM3 - Compounds are tested at 10 uM concentration, plate are incubated at room temperature in the dark for 90 minutes. Reaction are stopped by vacuum filtration onto 0.3% polyethyleneimine soaked filter mats using Filtermate harvester. Scintilation cocktail is then melted onto microwave-dried filters on a hot plate and the radio activity is counted in Microbia counter.

[7] = target: Histamine H3 receptor (Homo sapiens) (UniProt Q9Y5N1)
Description: PDSP Primary Binding target: HRH3 - Compounds are tested at 10 uM concentration, plate are incubated at room temperature in the dark for 90 minutes. Reaction are stopped by vacuum filtration onto 0.3% polyethyleneimine soaked filter mats using Filtermate harvester. Scintilation cocktail is then melted onto microwave-dried filters on a hot plate and the radio activity is counted in Microbia counter.

[8] = target: 5-hydroxytryptamine receptor 2B (Homo sapiens) (UniProt P41595)
Description: PDSP Primary Binding target: HTR2B - Compounds are tested at 10 uM concentration, plate are incubated at room temperature in the dark for 90 minutes. Reaction are stopped by vacuum filtration onto 0.3% polyethyleneimine soaked filter mats using Filtermate harvester. Scintilation cocktail is then melted onto microwave-dried filters on a hot plate and the radio activity is counted in Microbia counter.

[9] = target: T3, Alpha-1D adrenergic receptor (Homo sapiens) (UniProt P25100)
T3 sequence (whole entry): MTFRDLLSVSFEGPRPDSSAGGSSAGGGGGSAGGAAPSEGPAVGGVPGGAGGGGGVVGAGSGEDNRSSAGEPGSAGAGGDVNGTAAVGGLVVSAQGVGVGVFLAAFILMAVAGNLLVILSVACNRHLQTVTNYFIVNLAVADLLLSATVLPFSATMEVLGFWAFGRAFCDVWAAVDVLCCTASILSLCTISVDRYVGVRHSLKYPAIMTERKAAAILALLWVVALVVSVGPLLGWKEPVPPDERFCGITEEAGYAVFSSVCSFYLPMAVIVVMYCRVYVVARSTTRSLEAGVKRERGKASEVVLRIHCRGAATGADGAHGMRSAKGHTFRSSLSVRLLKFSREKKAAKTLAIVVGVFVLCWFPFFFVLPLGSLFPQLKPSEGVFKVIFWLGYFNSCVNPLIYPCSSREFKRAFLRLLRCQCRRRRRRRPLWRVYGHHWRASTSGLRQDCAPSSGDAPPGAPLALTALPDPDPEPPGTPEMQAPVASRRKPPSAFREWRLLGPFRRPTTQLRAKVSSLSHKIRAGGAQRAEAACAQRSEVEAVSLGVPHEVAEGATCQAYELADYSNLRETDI
Description: PDSP Primary Binding target: ADRA1D - Compounds are tested at 10 uM concentration, plate are incubated at room temperature in the dark for 90 minutes. Reaction are stopped by vacuum filtration onto 0.3% polyethyleneimine soaked filter mats using Filtermate harvester. Scintilation cocktail is then melted onto microwave-dried filters on a hot plate and the radio activity is counted in Microbia counter.

[10] = target: Histamine H2 receptor (Homo sapiens) (UniProt P25021)
Description: PDSP Primary Binding target: HRH2 - Compounds are tested at 10 uM concentration, plate are incubated at room temperature in the dark for 90 minutes. Reaction are stopped by vacuum filtration onto 0.3% polyethyleneimine soaked filter mats using Filtermate harvester. Scintilation cocktail is then melted onto microwave-dried filters on a hot plate and the radio activity is counted in Microbia counter.

[11] = target: Beta-3 adrenergic receptor (Homo sapiens) (UniProt P13945)
Description: PDSP Primary Binding target: ADRB3 - Compounds are tested at 10 uM concentration, plate are incubated at room temperature in the dark for 90 minutes. Reaction are stopped by vacuum filtration onto 0.3% polyethyleneimine soaked filter mats using Filtermate harvester. Scintilation cocktail is then melted onto microwave-dried filters on a hot plate and the radio activity is counted in Microbia counter.

[12] = target: 5-hydroxytryptamine receptor 5A (Homo sapiens) (UniProt P47898)
Description: PDSP Primary Binding target: HTR5A - Compounds are tested at 10 uM concentration, plate are incubated at room temperature in the dark for 90 minutes. Reaction are stopped by vacuum filtration onto 0.3% polyethyleneimine soaked filter mats using Filtermate harvester. Scintilation cocktail is then melted onto microwave-dried filters on a hot plate and the radio activity is counted in Microbia counter.

[13] = target: T4, 5-hydroxytryptamine receptor 3A (Homo sapiens) (UniProt P46098)
T4 sequence (whole entry): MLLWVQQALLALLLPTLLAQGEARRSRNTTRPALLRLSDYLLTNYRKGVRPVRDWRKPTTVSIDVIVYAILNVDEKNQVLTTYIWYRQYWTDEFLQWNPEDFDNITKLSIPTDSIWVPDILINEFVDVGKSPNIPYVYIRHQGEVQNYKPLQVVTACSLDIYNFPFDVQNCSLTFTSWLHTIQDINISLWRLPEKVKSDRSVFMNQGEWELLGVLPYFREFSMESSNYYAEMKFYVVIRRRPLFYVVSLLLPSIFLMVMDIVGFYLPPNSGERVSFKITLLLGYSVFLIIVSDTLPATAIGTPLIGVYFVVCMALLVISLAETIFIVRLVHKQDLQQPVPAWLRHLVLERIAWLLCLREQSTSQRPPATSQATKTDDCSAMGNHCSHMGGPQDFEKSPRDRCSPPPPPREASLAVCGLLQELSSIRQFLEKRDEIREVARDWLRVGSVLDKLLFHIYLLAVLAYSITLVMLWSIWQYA
Description: PDSP Primary Binding target: HTR3A - Compounds are tested at 10 uM concentration, plate are incubated at room temperature in the dark for 90 minutes. Reaction are stopped by vacuum filtration onto 0.3% polyethyleneimine soaked filter mats using Filtermate harvester. Scintilation cocktail is then melted onto microwave-dried filters on a hot plate and the radio activity is counted in Microbia counter.

Histamine H3 receptor (Homo sapiens), sequence (Q9Y5N1 whole entry): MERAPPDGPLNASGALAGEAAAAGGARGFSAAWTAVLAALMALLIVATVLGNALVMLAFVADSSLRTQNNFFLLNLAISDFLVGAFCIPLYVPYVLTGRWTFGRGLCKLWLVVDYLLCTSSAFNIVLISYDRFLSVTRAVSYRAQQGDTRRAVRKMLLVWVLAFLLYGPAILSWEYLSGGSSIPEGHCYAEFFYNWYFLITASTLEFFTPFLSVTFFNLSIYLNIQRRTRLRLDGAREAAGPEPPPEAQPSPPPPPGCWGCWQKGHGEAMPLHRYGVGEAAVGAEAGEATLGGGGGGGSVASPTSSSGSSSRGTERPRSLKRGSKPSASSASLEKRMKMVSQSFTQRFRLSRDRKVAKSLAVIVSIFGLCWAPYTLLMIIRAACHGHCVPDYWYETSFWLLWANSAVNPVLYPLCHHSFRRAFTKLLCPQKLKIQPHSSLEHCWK
Muscarinic acetylcholine receptor M3 (Homo sapiens), sequence (P20309 whole entry, looked up): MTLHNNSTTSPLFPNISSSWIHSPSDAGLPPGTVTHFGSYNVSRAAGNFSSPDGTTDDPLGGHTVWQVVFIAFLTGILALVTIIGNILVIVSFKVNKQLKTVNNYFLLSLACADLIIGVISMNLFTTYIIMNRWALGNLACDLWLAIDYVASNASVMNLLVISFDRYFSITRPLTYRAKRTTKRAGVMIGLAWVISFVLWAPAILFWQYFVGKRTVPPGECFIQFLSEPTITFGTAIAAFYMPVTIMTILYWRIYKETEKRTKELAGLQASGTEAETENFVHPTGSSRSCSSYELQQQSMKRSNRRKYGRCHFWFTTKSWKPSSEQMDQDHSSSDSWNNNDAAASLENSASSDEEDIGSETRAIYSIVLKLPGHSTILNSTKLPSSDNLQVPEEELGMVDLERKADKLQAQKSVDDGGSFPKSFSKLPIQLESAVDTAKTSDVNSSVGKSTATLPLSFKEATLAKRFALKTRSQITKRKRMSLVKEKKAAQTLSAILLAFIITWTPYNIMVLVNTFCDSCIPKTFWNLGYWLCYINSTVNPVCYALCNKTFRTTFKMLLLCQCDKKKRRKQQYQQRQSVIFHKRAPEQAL
Beta-3 adrenergic receptor (Homo sapiens), sequence (P13945 whole entry, looked up): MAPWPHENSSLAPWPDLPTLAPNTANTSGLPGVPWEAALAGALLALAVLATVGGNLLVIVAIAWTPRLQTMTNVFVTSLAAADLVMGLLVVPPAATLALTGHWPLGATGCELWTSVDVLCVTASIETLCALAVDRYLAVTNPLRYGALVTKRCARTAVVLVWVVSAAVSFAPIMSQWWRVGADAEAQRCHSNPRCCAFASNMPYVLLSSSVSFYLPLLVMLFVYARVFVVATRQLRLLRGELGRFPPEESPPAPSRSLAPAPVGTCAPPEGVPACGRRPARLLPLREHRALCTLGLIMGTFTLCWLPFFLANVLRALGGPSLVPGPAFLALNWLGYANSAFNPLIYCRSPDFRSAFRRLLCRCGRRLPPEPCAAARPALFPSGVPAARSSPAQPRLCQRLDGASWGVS
Sigma non-opioid intracellular receptor 1 (Homo sapiens), sequence (Q99720 whole entry): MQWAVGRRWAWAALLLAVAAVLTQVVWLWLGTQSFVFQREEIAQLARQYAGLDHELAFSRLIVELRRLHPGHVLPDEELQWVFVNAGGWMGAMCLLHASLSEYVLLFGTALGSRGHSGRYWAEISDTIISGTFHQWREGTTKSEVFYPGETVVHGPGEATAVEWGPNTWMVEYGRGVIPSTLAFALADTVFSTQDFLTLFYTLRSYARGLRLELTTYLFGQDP
Sodium-dependent dopamine transporter (Homo sapiens), sequence (Q01959 whole entry): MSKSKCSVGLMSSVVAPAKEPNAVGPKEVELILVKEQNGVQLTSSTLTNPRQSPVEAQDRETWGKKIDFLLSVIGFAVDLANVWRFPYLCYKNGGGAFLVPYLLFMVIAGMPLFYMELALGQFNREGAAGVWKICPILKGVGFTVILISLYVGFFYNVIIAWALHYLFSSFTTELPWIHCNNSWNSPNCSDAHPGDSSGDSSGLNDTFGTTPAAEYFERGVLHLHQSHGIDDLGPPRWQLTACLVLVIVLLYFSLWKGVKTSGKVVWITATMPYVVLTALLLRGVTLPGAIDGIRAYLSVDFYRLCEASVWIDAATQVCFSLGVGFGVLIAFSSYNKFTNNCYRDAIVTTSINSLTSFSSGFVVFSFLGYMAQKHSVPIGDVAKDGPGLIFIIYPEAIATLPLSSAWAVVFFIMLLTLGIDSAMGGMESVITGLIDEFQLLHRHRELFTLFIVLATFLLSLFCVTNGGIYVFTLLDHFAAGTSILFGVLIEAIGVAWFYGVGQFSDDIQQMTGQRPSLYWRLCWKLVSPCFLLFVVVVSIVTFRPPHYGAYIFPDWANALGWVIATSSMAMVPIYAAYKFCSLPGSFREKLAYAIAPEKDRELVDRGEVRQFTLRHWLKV
5-hydroxytryptamine receptor 2B (Homo sapiens), sequence (P41595 whole entry): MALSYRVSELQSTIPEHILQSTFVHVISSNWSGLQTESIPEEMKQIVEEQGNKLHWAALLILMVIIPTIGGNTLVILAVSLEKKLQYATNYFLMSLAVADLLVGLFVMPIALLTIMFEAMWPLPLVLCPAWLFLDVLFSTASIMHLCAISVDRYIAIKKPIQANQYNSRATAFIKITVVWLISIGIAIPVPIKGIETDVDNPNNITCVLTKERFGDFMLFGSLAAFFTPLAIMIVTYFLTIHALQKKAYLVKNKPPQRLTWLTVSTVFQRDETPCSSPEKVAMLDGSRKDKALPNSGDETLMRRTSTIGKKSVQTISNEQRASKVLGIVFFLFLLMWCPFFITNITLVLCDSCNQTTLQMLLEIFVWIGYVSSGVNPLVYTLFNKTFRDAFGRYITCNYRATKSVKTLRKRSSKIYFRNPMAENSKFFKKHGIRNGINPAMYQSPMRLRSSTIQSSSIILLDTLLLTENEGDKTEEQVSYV
Beta-1 adrenergic receptor (Homo sapiens), sequence (P08588 whole entry, looked up): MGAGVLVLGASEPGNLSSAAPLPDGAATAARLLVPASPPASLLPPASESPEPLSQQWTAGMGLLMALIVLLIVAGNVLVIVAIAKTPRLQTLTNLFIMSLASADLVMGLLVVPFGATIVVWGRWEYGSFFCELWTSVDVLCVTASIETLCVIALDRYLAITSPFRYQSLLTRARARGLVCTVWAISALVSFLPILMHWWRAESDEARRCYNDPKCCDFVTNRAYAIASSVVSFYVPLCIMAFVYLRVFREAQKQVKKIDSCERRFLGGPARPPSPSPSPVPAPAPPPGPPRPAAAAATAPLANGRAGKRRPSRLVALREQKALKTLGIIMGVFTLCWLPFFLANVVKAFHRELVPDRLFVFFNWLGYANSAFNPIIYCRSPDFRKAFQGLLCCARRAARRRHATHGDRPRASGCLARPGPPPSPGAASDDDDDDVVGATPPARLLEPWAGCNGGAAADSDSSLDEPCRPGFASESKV
5-hydroxytryptamine receptor 5A (Homo sapiens), sequence (P47898 whole entry): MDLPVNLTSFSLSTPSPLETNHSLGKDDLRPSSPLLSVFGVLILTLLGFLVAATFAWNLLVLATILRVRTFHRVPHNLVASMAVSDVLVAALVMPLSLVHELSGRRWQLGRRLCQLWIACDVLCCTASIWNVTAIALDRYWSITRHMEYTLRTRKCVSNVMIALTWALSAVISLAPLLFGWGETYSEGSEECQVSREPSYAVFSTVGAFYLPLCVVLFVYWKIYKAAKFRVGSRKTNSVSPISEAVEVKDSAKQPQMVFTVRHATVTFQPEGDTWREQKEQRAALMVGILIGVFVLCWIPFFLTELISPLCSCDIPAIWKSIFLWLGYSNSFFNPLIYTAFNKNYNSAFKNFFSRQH
Histamine H2 receptor (Homo sapiens), sequence (P25021 whole entry): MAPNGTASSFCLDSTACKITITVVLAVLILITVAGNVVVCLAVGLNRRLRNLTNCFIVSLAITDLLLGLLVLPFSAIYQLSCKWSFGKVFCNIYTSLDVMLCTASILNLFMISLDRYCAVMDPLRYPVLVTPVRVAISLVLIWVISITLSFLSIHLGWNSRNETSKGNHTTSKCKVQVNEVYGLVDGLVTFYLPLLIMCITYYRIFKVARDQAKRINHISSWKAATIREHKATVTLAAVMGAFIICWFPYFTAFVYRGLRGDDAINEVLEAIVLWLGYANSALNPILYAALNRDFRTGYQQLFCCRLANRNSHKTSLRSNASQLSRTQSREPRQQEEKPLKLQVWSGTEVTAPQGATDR

| SMILES | inhibition [1] [%] | inhibition [2] [%] | inhibition [3] [%] | inhibition [4] [%] | inhibition [5] [%] | inhibition [6] [%] | inhibition [7] [%] | inhibition [8] [%] | inhibition [9] [%] | inhibition [10] [%] | inhibition [11] [%] | inhibition [12] [%] | inhibition [13] [%] |
| --- | --- | --- | --- | --- | --- | --- | --- | --- | --- | --- | --- | --- | --- |
| CO[C@@H]1COCC[C@@H]1N[C@@H]1CC[C@@](C(=O)N2CCc3ncc(C(F)(F)F)cc3C2)(C(C)C)C1 | 81.8 | 28.2 | 14.2 | 2.58 | 8.25 | 6.08 | 4.46 | -6.19 | -8.81 | 14.9 | 47.5 | – | – |
| Clc1ccc(CCCOCCCN2CCCCC2)cc1 | 99.5 | – | 25.6 | 5.07 | 34.5 | 44.5 | 79.8 | 37 | 0.84 | 33 | 1.84 | -0.39 | 28.6 |
| Cc1cc(C)cc(-c2cnc3cc(Cl)c(-c4cccc(O)c4)cc3c2OCCCN)c1 | 74.9 | 19.6 | – | 81.8 | – | 59.2 | 10.6 | 88.6 | 53.7 | 81.6 | 99.4 | 96.4 | 43.9 |
| FC(F)(F)c1c(N2CCC(c3ccccc3)CC2)ccn2c(CC3CC3)nnc12 | 64.7 | 22.1 | 54.2 | – | 7.85 | -8.34 | – | -9.2 | -3.82 | 12.3 | 4.3 | – | – |
| Cc1cn2cc(CC(=O)N3CCC4(CC3)CN(Cc3ccc(-n5nccn5)cc3Cl)C4)nc2s1 | 52.1 | – | 44.2 | 33.4 | 68.5 | 98.2 | 3.15 | 19.4 | 13.3 | 60.1 | 25.6 | 8.61 | 1.22 |
| Cc1cc([C@@H](C)Nc2cccc(-c3cc(C)c(C(=O)N[C@@H](C)C(=O)O)c(C)c3)c2)ccc1Cl | 20 | – | 56.6 | – | 2.88 | -4.86 | 10 | 54.5 | – | 22.5 | 70.7 | 11.6 | – |
| CCC[C@H](Oc1cc(C)c(-n2cc(C(F)(F)F)cn2)c(C)c1)c1ccc(C(=O)NCCC(=O)O)cc1 | 1.84 | – | – | – | -6.26 | -0.42 | 11.1 | – | – | -8.24 | 65.4 | 8.62 | – |
| CC1=C2C[C@H]3[C@@H](CC=C4C[C@@H](O)CC[C@@]43C)[C@@H]2CC[C@]12O[C@@H]1C[C@H](C)CN[C@H]1[C@H]2C | 10.2 | -3.27 | – | 13.7 | -1.88 | -6.3 | 32.2 | – | -8.81 | 20.5 | 38.6 | – | – |
| O=C1O[C@]2(CC[C@H](C(=O)Nc3ccn(-c4ccccc4F)n3)CC2)c2cnccc21 | 4.97 | – | – | 3.66 | -5.81 | 2.94 | 2.41 | 17.5 | – | 2.76 | 3.84 | – | – |
| CCOC(=O)c1cc(C#N)c(N2CCC(C(=O)NS(=O)(=O)Cc3ccccc3)CC2)nc1C | 44.3 | – | 32.9 | -8.97 | 68.1 | – | 15 | – | 29.5 | 17.2 | 21.2 | -2.81 | 3.98 |
| CN1CCCC(n2nc(Cc3ccc(Cl)cc3)c3ccccc3c2=O)CC1 (configuration not stated) | 91.9 | – | 25.9 | 72.7 | 36.1 | 57.3 | 28.5 | 89.5 | 88.2 | 22.8 | 61.5 | 80.8 | 96.4 |
| N#Cc1ccc(NC(=O)Nc2ccccc2Br)c2nn[nH]c12 | 9.64 | 26.6 | 59.8 | 13.2 | 29.7 | – | 3.06 | 33.9 | -7.75 | 17.7 | 75 | – | 4.92 |
| CNc1nc(NCc2ccc(NS(C)(=O)=O)cc2Cl)cc(-c2ccccn2)n1 | 87.2 | – | 47.6 | 26.4 | -5.61 | -1.96 | -8.26 | 66.5 | 12.4 | 18 | 15 | 75.4 | -0.08 |
| CC(C)NC(=O)c1ccc(C#Cc2ccncc2)cn1 | 68.4 | – | 24.2 | – | 53.1 | – | – | 34.4 | 13.3 | 25.7 | 29.8 | – | -5.94 |
| CC(C)Oc1ccccc1C(=O)Nc1ccccc1C(=O)Nc1cccc(S(=O)(=O)C(F)(F)F)c1 | – | – | – | -9.86 | -6.99 | 13.1 | -5.72 | – | – | 36 | 1.49 | – | -3.89 |
| O=C(O)CC1CCC2(CC1)CCN(c1cc(OC(F)(F)F)ccc1Cl)CC2 | -0.46 | – | 7.81 | 0.25 | 27.1 | -5.1 | 7.59 | – | – | -4.3 | 17.5 | – | – |
| C[C@]1(C(=O)N(CCCC(=O)O)Cc2cccc(Cl)c2)CCN1C(=O)c1csc2ccccc12 | 32.5 | 1.62 | 13 | -9.59 | – | – | -8.42 | -7.25 | 3.17 | 19.3 | -0.98 | -1.31 | -7.18 |
